Here are results for one substance from US11207379B2, “Peptides with anti-cancer activity” (IDP DISCOVERY PHARMA, S.L., priority 2016, dated 2021).

As a reminder, the EC50 is the concentration at which the effect is half-maximal.

Common to all, as to assay: Viability assay (MTT, Alamar Blue, hexosaminidase), 72 h
Holding throughout (type): cell-based
In general terms: Alamar Blue is a resazurin reagent that responds to reducing activity.

Assay [1] has as its target HL-60, promyeloblast (acute myelocytic leukemia, AML). The settings on record: HL-60 cells, read-out: EC50. Put shortly:
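HL-60 seeded at 10000 cells/well in RPMI-1640/10% FBS, dosed after 24 h from 100 μM top concentration in 1:1 serial dilutions, incubated 72 h at 37° C. Viability read consecutively by MTT, Alamar Blue and hexosaminidase, normalised to untreated cells; EC50 from variable-slope sigmoidal fit, triplicates.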

Assay [2] has as its target MCF-7, epithelial (breast cancer). The settings on record: MCF7 cells, read-out: EC50. Put shortly: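 Cells seeded at 5000/well, compounds added 24 h later from 100 μM in 1:1 serial dilutions, triplicate, 72 h at 37° C. Viability read consecutively by MTT (A570), Alamar Blue fluorescence and hexosaminidase activity, normalized to untreated control = 100%; EC50 from variable-slope sigmoidal fit.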

Assay [3] has as its target MM.1S, B Lymphoblast (multiple myeloma). The settings on record: MM.1S cells, read-out: EC50. The procedure, abridged:
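MM.1S cells (RPMI-1640, 10% FBS, 2 mM glutamine, 37 °C) were seeded at 10000 cells/well and dosed after 24 h, starting at 100 μM with 1:1 serial dilutions, in triplicate, for 72 h. Viability was read sequentially by MTT (570 nm), Alamar Blue (535/590) and hexosaminidase (pH 5.0). Values were normalized to control (100%), and EC50 came from a variable-slope sigmoidal fit.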

For assay [4], the system named is JB healthy cells (BJ, fibroblast, normal skin). How it is done:
BJ, fibroblast (normal skin), ATCC® CRL-2522™
Cell lines A549, MCF-7 and RAMOS were cultured in incubator under CO2 (6%) at 37° C. in DMEM high glucose (Dulbecco's Modified Eagle Solution, Gibco-BRL 31966-21) medium with 10% fetal bovine serum inactivated (FBS) (Gibco-BRL 10106-169). Cell lines HL-60 and MM.1S were cultured in incubator at 37° C. in RPMI-1640 (Sigma R8758) medium with 10% of fetal bovine serum inactivated (FBS) and 2 mM glutamine (Sigma G7513). Cell lines BJ were cultured in incubator under CO2 (6%) at 37° C. in Eagle's Minimum Essential Medium (Sigma, M-2279) with 10% fetal bovine serum inactivated (FBS) (Gibco-BRL 10106-169).
During the amplification step and the assays adherent cells were rinsed with DPBS (Dulbecco's Phosphate Buffered Saline, Sigma D1283) three times and afterward treated for 5 minutes with trypsin ([…]) (Gibco-BRL, 15400054) in solution of DPBS at 37° C., and, once detached, transferred in the culturing medium. […] Cells were counted in a Neubauer chamber after labelling with Tripan-Blue. […]
Cells were incubated during 72 h in incubator under CO2 atmosphere at 37° C. Cell viability was measured by means of MTT (3-(4,5-dimethylthiazol-2-yl)-2.5-diphenyltetrazolium bromide) assay, Alamar Blue® (Biosource DAL1100) and Hexosaminidase activity test, consecutively, following manufacturer instructions. […]

Where only a bound is given, the exact number is not on record here.

For RQRRNXLKRAFAXLRDQ-OH [IDP-S03], the EC50 in assay [1] is roughly 6.6 µM; in assay [2] it was 32 ± 5 µM; in assay [3] it was roughly 14 µM; in assay [4], greater than 100 µM.
